According to patent US20210170033A1, “NOVEL CONJUGATES OF A PHARMACEUTICAL AGENT AND A MOIETY CAPABLE OF BINDING TO A GLUCOSE SENSING PROTEIN” (SANOFI, priority 2017, published 2021):
Where two headings read alike, the source gives them in different places.

Assays:
[1] = test system: A2780 Human Carcinoma Cells; assay: Glucose displacement assay (ATP measurement, CellTiter-Glo); format: cell-based; conditions: ATP measurement in A2780 cells, 0.5 μM rotenone
Protocol: 2. Glucose Displacement Assay (ATP Measurement)
30,000 A2780 Human Carcinoma Cells are seeded per well in a Greiner 96-well plate. Cells are expanded and cultured in RPMI 1640 medium+GlutaMAX® with 10% FCS and 11 mM glucose, at 37° C. with 5% CO2. After 44 h, culture media is changed and washed once with PBS to starvation media consisting of RPMI 1640 medium with 1% FCS without glucose for 2 hours. Cells are then washed with KRB buffer, followed by incubation for 20 min at 37° C. of the treatment mix consisting of 60 μL KRB buffer/well and 10 μL of compound or DMSO 10×. 10 μl of rotenone is added to the mix to a final concentration of 0.5 μM. Cell plates are left for 2 min at room temperature. 20 μL of different glucose concentrations are added to the mix—typically 0.1 to 10 mM range—.
Cells are incubated for another 15 min at 37° C., before measuring ATP with the CellTiter-Glo® Assay, under manufacturer's guidance, but without the equilibration step at room temperature for 30 min. In brief, 100 μl of Cell-Titer-Glo® Reagent is added to the wells containing already 100 μl of the previous reaction mix. Plates are mixed for 2 min at 800 rpm, followed by incubation at room temperature for 10 min to stabilize the luminescent signal. Luminescence is then recorded with the Tekan Ultra Evolution reader.

A2780 cells = assay: Deoxy-glucose uptake assay in A2780 cells (14C 2-deoxy-D-glucose transport); format: cell-based; conditions: Homo sapiens, 20 min; inhibition of 14C 2-deoxy-D-glucose transport into A2780 cells; 20 min compound incubation; read-out: IC50
Procedure, shortened: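 Radiolabelled 2-deoxy-D-glucose transport over 20 min was scintillation-counted in A2780 cells, grown 48 h, after 20 min compound exposure in KRB. Untreated cells gave the 100% reference, with Cytochalasin B defining background. IC50 values were regressed from triplicate means across 7 or 14 concentrations.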

[2] = 1 mM glucose, read-out: IC50 [μM] at 1 mM glucose
[3] = 10 mM glucose, read-out: IC50 [μM] at 10 mM glucose

| IC50 [1, 2] [µM] | IC50 [1, 3] [µM] | IC50 (A2780 cells) [µM] | SMILES |
| --- | --- | --- | --- |
| 1.46 | 7.76 | 2.5 | CO[C@H]1O[C@H](CO)[C@@H](O)[C@H](O)[C@H]1OC(=O)c1cc(Cl)c(OCc2cccc(CNC(=O)CCCC(=O)OC(C)(C)C)c2)c(Cl)c1C [Example 349] |
| 18 | > 33 | 7 | COC(=O)[C@H](CCCCNC(=O)CCCC(=O)Nc1cccc(COc2cc(OC)c(C(=O)N[C@H]3[C@@H](OC)O[C@H](CO)[C@@H](O)[C@@H]3O)cc2Cl)c1)NC(=O)OC(C)(C)C [Example 440] |
| 4 | 8.4 | 1.6 | COc1c(C(=O)N[C@H]2[C@@H](OC)O[C@H](CO)[C@@H](O)[C@@H]2O)cc(Cl)c(OCc2cccc(CNC(=O)OC(C)(C)C)c2)c1Cl [Example 444] |
| 7.63 | 14.5 | 4.1 | COc1cc(OCc2cccc(NC(=O)CCCCCCC(=O)O)c2)c(Cl)cc1C(=O)O[C@H]1[C@@H](OC)O[C@H](CO)[C@@H](O)[C@@H]1O [Example 409] |
| 16.3 | > 33 | 8.6 | COc1cc(OCc2cccc(NC(=O)CCCC(=O)O)c2)c(Cl)cc1C(=O)O[C@H]1[C@@H](OC)O[C@H](CO)[C@@H](O)[C@@H]1O [Example 407] |
| 1.5 | 6.07 | 0.1 | COc1cc(OCc2cn3c(C)cccc3n2)c(Cl)cc1C(=O)O[C@H]1[C@@H](OC)O[C@H](CO)[C@@H](O)[C@@H]1O [Example 353] |
| 0.86 | 1.44 | 0.4 | C#CCCCCCCCn1c(COc2c(Cl)cc(C(=O)O[C@H]3[C@@H](OC)O[C@H](CO)[C@@H](O)[C@@H]3O)c(C)c2Cl)nc2ccccc21 [Example 371] |
| 2.3 | > 33 | 12.9 | COC(=O)/C=C/c1ccc(COc2c(Cl)cc(C(=O)N[C@H]3[C@@H](OC)O[C@H](CO)[C@@H](O)[C@@H]3O)c(C)c2Cl)cc1 [Example 315] |
| 7.97 | 14.5 | 2.5 | COc1cc(OCc2cccc(CNC(=O)CCCC(=O)OC(C)(C)C)c2)c(Cl)cc1C(=O)N[C@H]1[C@@H](OC)O[C@H](CO)[C@@H](O)[C@@H]1O [Example 425] |
| 5.39 | 24.1 | 8.3 | COc1cc(OCc2cccc(OCCCCCC(=O)O)c2)c(Cl)cc1C(=O)O[C@H]1[C@@H](OC)O[C@H](CO)[C@@H](O)[C@@H]1O [Example 379] |
| 0.13 | 1.12 | 0.1 | C#CCCCn1c(COc2c(Cl)cc(C(=O)O[C@H]3[C@@H](OC)O[C@H](CO)[C@@H](O)[C@@H]3O)c(C)c2Cl)nc2cc(OC)ccc21 [Example 292] |
| 2.81 | 28.5 | 9.7 | C#CCCCn1c(COc2cc(Cl)cc(C(=O)O[C@H]3[C@@H](OC)O[C@H](CO)[C@@H](O)[C@@H]3O)c2)nc2ccccc21 [Example 314] |
| 0.94 | 7.98 | 2.1 | CO[C@H]1O[C@H](CO)[C@@H](O)[C@H](O)[C@H]1NC(=O)c1cc(Cl)c(OCc2noc3ccc(C)cc23)c(Cl)c1C [Example 324] |
| 6.44 | 26.7 | 4.1 | COc1cc(OCc2cccc(CNC(=O)CCCC(=O)OC(C)(C)C)c2)c(Cl)cc1C(=O)O[C@H]1[C@@H](OC)O[C@H](CO)[C@@H](O)[C@@H]1O [Example 373] |
| 1.7 | > 10 | 8.4 | C#CCCC(=O)Nc1cccc(COc2c(Cl)cc(C(=O)O[C@H]3[C@@H](OC)O[C@H](CO)[C@@H](O)[C@@H]3O)c(C)c2Cl)c1 [Example 206] |
| 13 | > 33 | 13.8 | COC(=O)[C@H](CCCCNC(=O)CCCCCCCCC(=O)NCc1cccc(COc2cc(OC)c(C(=O)N[C@H]3[C@@H](OC)O[C@H](CO)[C@@H](O)[C@@H]3O)cc2Cl)c1)NC(=O)OC(C)(C)C [Example 438] |
| 0.92 | 3.52 | 0.3 | C#CCCCn1c(COc2c(Cl)cc(C(=O)O[C@H]3[C@@H](OC)O[C@H](CO)[C@@H](O)[C@@H]3O)c(C)c2Cl)nc2cc(C)ccc21 [Example 330] |
| 3.4 | 8.6 | 0.8 | COC(=O)[C@H](CCCCNC(=O)CCCCCNC(=O)CCCCCCC(=O)Nc1cccc(COc2cc(OC)c(C(=O)N[C@H]3[C@@H](OC)O[C@H](CO)[C@@H](O)[C@@H]3O)cc2Cl)c1)NC(=O)OC(C)(C)C [Example 471] |
| 0.55 | 1.97 | 0.8 | CO[C@H]1O[C@H](CO)[C@@H](O)[C@H](O)[C@H]1OC(=O)c1cc(Cl)c(OCc2cccc(NC(=O)CCCC(=O)OC(C)(C)C)c2)c(Cl)c1C [Example 351] |
| 21.4 | > 100 | 12.7 | C#CCCCn1cnc(COc2c(Cl)cc(C(=O)O[C@H]3[C@@H](OC)O[C@H](CO)[C@@H](O)[C@@H]3O)cc2OC)c1 [Example 208] |
| 4.39 | 11.6 | 1.1 | COc1cc(OCc2cccc(CNC(=O)OC(C)(C)C)c2)c(Cl)cc1C(=O)N[C@H]1[C@H](OC)O[C@H](CO)[C@@H](O)[C@@H]1O [Example 419] |
| 2.41 | 6.59 | 12.4 | CO[C@H]1O[C@H](CO)[C@@H](O)[C@H](O)[C@H]1OC(=O)c1cc(Cl)c(OCc2cccc(NCCCC(=O)OC(C)(C)C)c2)c(Cl)c1C [Example 345] |
| 3.68 | 12.1 | 2.7 | COC(=O)CCc1ccc(COc2cc(OC)c(C(=O)N[C@H]3[C@@H](OC)O[C@H](CO)[C@@H](O)[C@@H]3O)cc2Cl)cc1 [Example 356] |
| 5.6 | > 33 | 7.3 | COc1cc(OCc2ccccc2)c(Cl)cc1C(=O)N[C@H]1[C@@H](OC)O[C@H](CO)[C@@H](O)[C@@H]1O [Example 232] |
| 6.02 | 13.9 | 2.3 | COC(=O)[C@H](CCCCNC(=O)CCCC(=O)Nc1cccc(COc2cc(OC)c(C(=O)O[C@H]3[C@@H](OC)O[C@H](CO)[C@@H](O)[C@@H]3O)cc2Cl)c1)NC(=O)OC(C)(C)C [Example 412] |
| 1.6 | 5.2 | 1 | COC(=O)[C@H](CCCCNC(=O)CCCCCCCCC(=O)Nc1cccc(COc2cc(OC)c(C(=O)N[C@H]3[C@@H](OC)O[C@H](CO)[C@@H](O)[C@@H]3O)cc2Cl)c1)NC(=O)OC(C)(C)C [Example 442] |
| 0.17 | 0.89 | 0.4 | CCOC(=O)CCCn1cc(CCCn2c(COc3c(Cl)cc(C(=O)O[C@H]4[C@@H](OC)O[C@H](CO)[C@@H](O)[C@@H]4O)c(C)c3Cl)nc3ccccc32)nn1 [Example 310] |
| 1.34 | 7.83 | 2.4 | COC(=O)[C@H](CCC(=O)Nc1cccc(COc2cc(OC)c(C(=O)O[C@H]3[C@@H](OC)O[C@H](CO)[C@@H](O)[C@@H]3O)cc2Cl)c1)NC(=O)OC(C)(C)C [Example 377] |
